Measurements from patent publication US6410735B1, “1-(4-arylpiperazin-1-y1)-ω-[N-(α,ω-dicarboximido)]-alkanes useful as uro-selective α1-adrenoceptor blockers” (Ranbaxy Laboratories Limited, priority 1997, dated 2002).

Legend:
Type in all cases: cell-based
β1-adrenoceptor = target: T1, β1-adrenoceptor (Rattus norvegicus, UniProt P18090); assay: Receptor selectivity, electrically stimulated rat ventricular strips; conditions: read-out: pKB B-adrenergic (converted)
T1 construct: from tissue; host or cells: rat ventricular strips
Procedure: (§1) Selectivity of action of the present compounds was tested against a range of different receptors, e.g., β1- and α2-adrenergic, muscarinic cholinergic, serotoninergic (5-HT2A), histaminergic (H1), angiotensin II, endothelin (ETA and B,), as well as calcium and potassium channels. Rat aorta was used to study the effect of the compounds on 5-HT2A, ETA, calcium and potassium channels. Angiotensin II receptor antagonistic activity was studied in rabbit aorta. Muscarinic cholinergic receptor and ETB receptor antagonistic activity was studied in rat trachea, while guinea pig trachea was used to study H1 receptor antagonistic activity. Electrically stimulated rat vas deferens was used to investigate the effect of α2-adrenoceptors, while β1-adrenoceptor antagonistic activity was studied using electrically stimulated rat ventricular strips. Results of this selectivity study is shown in (Table 2).

ETA = target: T2, ETA (Rattus norvegicus, UniProt P26684); assay: Receptor selectivity, rat aorta; conditions: read-out: pKB ETA (converted)
T2 construct: from tissue; host or cells: rat aorta
T2 sequence (P26684 21-426): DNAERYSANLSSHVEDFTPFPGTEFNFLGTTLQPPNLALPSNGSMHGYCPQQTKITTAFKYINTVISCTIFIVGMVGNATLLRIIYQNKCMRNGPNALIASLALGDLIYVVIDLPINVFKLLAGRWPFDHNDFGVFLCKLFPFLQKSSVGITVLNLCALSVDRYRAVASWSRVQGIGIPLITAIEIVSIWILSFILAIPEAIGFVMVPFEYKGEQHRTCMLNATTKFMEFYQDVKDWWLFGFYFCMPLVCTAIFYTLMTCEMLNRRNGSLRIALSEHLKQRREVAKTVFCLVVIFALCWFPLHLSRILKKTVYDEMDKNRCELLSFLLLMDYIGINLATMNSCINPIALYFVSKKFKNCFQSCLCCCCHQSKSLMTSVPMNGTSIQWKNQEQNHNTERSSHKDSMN
Procedure: as §1

ETB receptor = target: T3, ETB receptor (Rattus norvegicus, UniProt P21451); assay: Receptor selectivity, rat trachea; conditions: read-out: pKB ETB (converted)
T3 construct: from tissue; host or cells: rat trachea
T3 sequence (P21451 27-442): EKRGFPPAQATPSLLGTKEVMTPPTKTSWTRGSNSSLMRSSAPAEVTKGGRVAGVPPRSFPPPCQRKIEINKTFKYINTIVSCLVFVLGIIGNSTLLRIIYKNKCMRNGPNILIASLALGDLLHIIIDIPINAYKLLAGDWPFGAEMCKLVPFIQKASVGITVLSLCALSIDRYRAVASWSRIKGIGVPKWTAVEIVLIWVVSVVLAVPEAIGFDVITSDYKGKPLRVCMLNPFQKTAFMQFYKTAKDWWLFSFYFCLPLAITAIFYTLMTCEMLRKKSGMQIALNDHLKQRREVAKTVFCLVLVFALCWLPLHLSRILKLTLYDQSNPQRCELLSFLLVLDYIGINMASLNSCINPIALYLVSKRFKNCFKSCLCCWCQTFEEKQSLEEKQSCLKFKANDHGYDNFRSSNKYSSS
Procedure: as §1

T1 sequence (P18090 whole entry): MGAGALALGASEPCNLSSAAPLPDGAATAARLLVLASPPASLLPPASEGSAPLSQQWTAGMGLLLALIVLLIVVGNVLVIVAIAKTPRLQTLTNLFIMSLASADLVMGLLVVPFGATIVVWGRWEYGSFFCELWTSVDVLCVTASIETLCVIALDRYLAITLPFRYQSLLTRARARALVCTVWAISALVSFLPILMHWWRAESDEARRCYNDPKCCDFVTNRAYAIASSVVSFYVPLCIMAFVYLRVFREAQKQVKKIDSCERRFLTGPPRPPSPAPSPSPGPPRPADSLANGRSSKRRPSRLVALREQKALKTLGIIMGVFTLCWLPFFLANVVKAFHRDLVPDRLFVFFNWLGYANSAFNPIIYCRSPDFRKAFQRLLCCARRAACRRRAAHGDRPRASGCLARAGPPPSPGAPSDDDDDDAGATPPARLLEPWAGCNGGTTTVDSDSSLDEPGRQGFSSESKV

Compound: COc1ccccc1N1CCN(CCCN2C(=O)CCC2=O)CC1 [Compound 2, 1-[4-(2-Methoxyphenyl)piperazin-1-yl]3-(2,5-dioxopyrrolidin-1-yl)propane]
- Kb (β1-adrenoceptor): 63.1 µM

Compound: COc1ccccc1N1CCN(CCCCN2C(=O)CCC2=O)CC1 [Compound 9, 1-[4-(2-Methoxyphenyl)piperazin-1-yl]-4-(2,5-dioxopyrrolidin-1-yl)butane]
- Kb (ETA): 50.1 µM
- Kb (ETB receptor): 3.98 µM

Compound: COc1ccccc1N1CCN(CCCN2C(=O)CCCC2=O)CC1 [Compound 13, 1-[4-(2-Methoxyphenyl)piperazin-1-yl]-3-(2,6-dioxopiperidin-1-yl)propane]
- Kb (β1-adrenoceptor): 7.94 µM
- Kb (ETA): 50.1 µM
- Kb (ETB receptor): 12.6 µM
